US20090069370A1, “AZACYCLYLISOQUINOLINONE AND ISOINDOLINONE DERIVATIVES AS HISTAMINE-3 ANTAGONISTS” (Wyeth, priority 2007, published 2009)
Where a name gives a salt, the structure may show the parent alone.

What follows are compounds tested against T1, Human Histamine H3 Receptor (Homo sapiens, UniProt Q9Y5N1) (assay: Methyl histamine binding in human histamine H3 receptor cell line). Settings: membranes of stably transfected HEK293T cells; radioligand 1 nM; Ki from IC50 by Cheng-Prusoff.
T1 construct: expressed in transfected cells; host or cells: HEK293T cells, stably transfected; membrane preparation
Method: Evaluation of Methyl Histamine Binding in Human Histamine H3 Receptor Cell Line
The affinity of test compounds for the histamine 3 (H3) receptor is evaluated in the following manner. Stably transfected HEK293T cells are grown in DMEM containing 10% heat inactivated FBS and G-418 (500 ug/ml). Cells are scraped from the plate, transferred to centrifuge tubes, washed one time in PBS by centrifugation in a Sorvall RT7 Plus centrifuge (2000 rpm 10 minutes, 4° C.). The resulting pellets are stored at −80° C. until ready for use. Cells are re-suspended in buffer (50 mM Tris pH=7.5) and placed in a Dounce homogenizer, douncing ten times to homogenize cells. The homogenate is spun down by centrifugation (Sorvall RT7 Plus, 1800 rpm 10 minutes, 4° C.). The supernatant is placed in a Corex tube and spun down by centrifugation (Sorvall RC 5c Plus, 17,000 rpm 20 minutes, 4° C.). The pellet is resuspended in buffer (50 mM Tris, pH 7.5). Protein concentration (ug/ul) is determined using the Micro-BCA Protein Determination. The binding assay is set up in a 96 well microtiter plate in a total volume of 250 uL. Non-specific binding is determined in the presence of 10 uM clobenpropit. The final radioligand concentration is 1 nM. The test compound is serially diluted using the Beckman Biomek2000 to a final approximate range of 100 uM to 100 pM. Membranes are suspended in buffer, homogenized in 2 bursts of ten seconds using a Vitris mechanical homogenizer set at power setting 5. Ten μg of membranes are added to each well. Following a one hour incubation at 30° C., the reaction is terminated by the addition of ice cold buffer and rapid filtration with a Packard Filtermate Harvester through a GF/B filter pre-soaked with 1% PEI for one hour. The plate is dried for one hour at 37° C. and 60 μL Microscint Scintillant is added to each well. The CPM per well is measured on a Packard Top Count NXT. Ki values are determined in nM. The Ki is calculated from the IC50 (i.e. the concentration of competing ligand which displaces 50% of the specific binding of the radioligand). CPM values are expressed as % specific binding and plotted vs compound concentration. A curve is fitted using a four-parameter logistic fit and the IC50 value is determined. The Ki is calculated from this using the Cheng-Prusoff equation: […]=IC50/1+(L/Kd) where L=concentration of free radioligand used in the assay, and Kd is the dissociation constant of the radioligand for the receptor. L is determined for each experiment by counting an aliquot of the diluted radioligand (corresponding to that added to each well) and the Kd has previously been determined under identical conditions for this cell line/radioligand.

T1 sequence (Q9Y5N1 whole entry): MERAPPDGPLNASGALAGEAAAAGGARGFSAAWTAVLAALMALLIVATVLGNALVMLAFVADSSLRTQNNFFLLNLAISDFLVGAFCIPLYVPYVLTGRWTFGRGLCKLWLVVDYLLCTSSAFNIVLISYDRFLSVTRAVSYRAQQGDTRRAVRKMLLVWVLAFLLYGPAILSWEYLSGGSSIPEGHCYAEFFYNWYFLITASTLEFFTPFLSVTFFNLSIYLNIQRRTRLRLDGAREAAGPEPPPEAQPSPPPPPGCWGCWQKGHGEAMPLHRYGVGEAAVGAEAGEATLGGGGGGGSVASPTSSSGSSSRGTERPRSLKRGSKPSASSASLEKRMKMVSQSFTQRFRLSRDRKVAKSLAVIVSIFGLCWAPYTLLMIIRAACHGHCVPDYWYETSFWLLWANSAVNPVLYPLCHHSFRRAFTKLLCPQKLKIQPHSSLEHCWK

Ki | SMILES
≤ 10 nM | O=C(NC1CC1)c1ccc(Oc2ccc3c(c2)CCN(C2CCN(C4CCC4)CC2)C3=O)cc1 [Example 7, 4-{[2-(1-Cyclobutylpiperidin-4-yl)-1-oxo-1,2,3,4-tetrahydroisoquinolin-6-yl]oxy}-N-cyclopropylbenzamide]
≤ 10 nM | CNC(=O)c1ccc(-c2ccc3c(c2)CCN([C@@H]2CCN(C4CCC4)C2)C3=O)c(F)c1 [Example 75, 4-{2-[(3R)-1-cyclobutylpyrrolidin-3-yl]-1-oxo-1,2,3,4-tetrahydroisoquinolin-6-yl}-3-fluoro-N-methylbenzamide]
≤ 10 nM | CN(C)C(=O)c1ccc(-c2ccc3c(c2)CCN([C@@H]2CCN(C4CCC4)C2)C3=O)cc1 [Example 46, 4-{2-[(3R)-1-cyclobutylpyrrolidin-3-yl]-1-oxo-1,2,3,4-tetrahydroisoquinolin-6-yl}-N,N-dimethylbenzamide]
≤ 10 nM | CN(C)C(=O)c1ccc(-c2ccc3c(c2)CCN([C@@H]2CCN(C4CCC4)C2)C3=O)c(F)c1 [Example 78, 4-{2-[(3R)-1-cyclobutylpyrrolidin-3-yl]-1-oxo-1,2,3,4-tetrahydroisoquinolin-6-yl}-3-fluoro-N,N-dimethylbenzamide]
≤ 10 nM | O=C(NC1CCCC1)c1ccc(COc2ccc3c(c2)CCN(C2CCN(C4CCC4)CC2)C3=O)cc1 [Example 21, 4-({[2-(1-Cyclobutylpiperidin-4-yl)-1-oxo-1,2,3,4-tetrahydroisoquinolin-6-yl]oxy}methyl)-N-cyclopentylbenzamide]
50.1 to 100 nM | N#Cc1ccc(-c2ccc3c(c2)CN(C2CCN(CC4CC4)CC2)C3=O)cc1 [Example 26, 4-{2-[1-(Cyclopropylmethyl)piperidin-4-yl]-1-oxo-2,3-dihydro-1H-isoindol-5-yl}benzonitrile]
≤ 10 nM | CNC(=O)c1ccc(Oc2ccc3c(c2)CCN(C2CCN(C4CCC4)CC2)C3=O)cc1 [Example 4, 4-{[2-(1-Cyclobutylpiperidin-4-yl)-1-oxo-1,2,3,4-tetrahydroisoquinolin-6-yl]oxy}-N-methylbenzamide]
≤ 10 nM | O=C1NCCc2cc(-c3ccc4c(c3)CCN([C@@H]3CCN(C5CCC5)C3)C4=O)ccc21 [Example 89, (R)-2-(1-cyclobutylpyrrolidin-3-yl)-3,3′,4,4′-tetrahydro-6,6′-biisoquinoline-1,1′(2H,2′H)-dione hydrochloride]
≤ 10 nM | O=C(NC1CC1)c1ccc(-c2ccc3c(c2)CCN([C@@H]2CCN(C4CCC4)C2)C3=O)c(F)c1 [Example 81, 4-{2-[(3R)-1-cyclobutylpyrrolidin-3-yl]-1-oxo-1,2,3,4-tetrahydroisoquinolin-6-yl}-N-cyclopropyl-3-fluorobenzamide]
10.1 to 25 nM | NC(=O)c1ccc(Oc2ccc3c(c2)CCN(C2CCN(C4CCC4)CC2)C3=O)cc1 [Example 3, 4-{[2-(1-cyclobutylpiperidin-4-yl)-1-oxo-1,2,3,4-tetrahydroiso-quinolin-6-yl]oxy}benzamide Hydrochloride]
≤ 10 nM | O=C(c1ccc(COc2ccc3c(c2)CCN(C2CCN(C4CCC4)CC2)C3=O)cc1)N1CCCC1 [Example 20, 2-(1-Cyclobutylpiperidin-4-yl)-6-{[4-(pyrrolidin-1-ylcarbonyl)benzyl]oxy}-3,4-dihydroisoquinolin-1(2H)-one]
≤ 10 nM | O=C(c1ccc(-c2ccc3c(c2)CCN([C@@H]2CCN(C4CCCCC4)C2)C3=O)cc1)N1CCCC1 [Example 57, 2-[(3R)-1-cyclohexylpyrrolidin-3-yl]-6-[4-(pyrrolidin-1-ylcarbonyl)phenyl]-3,4-dihydroisoquinolin-1(2H)-one]
≤ 10 nM | CNC(=O)c1ccc(-c2ccc3c(c2)CCN(C2CCN(C4CCC4)C2)C3=O)cc1 (stereo in doubt) [Example 90, (R)-4-(2-(1-cyclobutylpyrrolidin-3-yl)-1-oxo-1,2,3,4-tetrahydro-isoquinolin-6-yl)-N-methylbenzamide hydrochloride]
25.1 to 50 nM | N#Cc1ccc(-c2ccc3c(c2)CN(C2CCN(CC4CCCC4)CC2)C3=O)cc1 [Example 27, 4-{2-[1-(Cyclopentylmethyl)piperidin-4-yl]-1-oxo-2,3-dihydro-1H-isoindol-5-yl}benzonitrile]
25.1 to 50 nM | O=C(c1ccc(-c2ccc3c(c2)CCN([C@@H]2CCN(Cc4cccs4)C2)C3=O)cc1)N1CCCC1 [Example 62, 6-[4-(pyrrolidin-1-ylcarbonyl)phenyl]-2-[(3R)-1-(thiophen-2-ylmethyl)pyrrolidin-3-yl]-3,4-dihydroisoquinolin-1(2H)-one]
≤ 10 nM | O=C(NC1CCC1)c1ccc(-c2ccc3c(c2)CCN([C@@H]2CCN(C4CCC4)C2)C3=O)c(F)c1 [Example 74, N-cyclobutyl-4-{2-[(3R)-1-cyclobutylpyrrolidin-3-yl]-1-oxo-1,2,3,4-tetrahydroisoquinolin-6-yl}-3-fluorobenzamide]
≤ 10 nM | CNC(=O)c1ccc(-c2ccc3c(c2)CCN([C@@H]2CCN(C4CCCC4)C2)C3=O)cc1 [Example 41, 4-{2-[(3R)-1-cyclopentylpyrrolidin-3-yl]-1-oxo-1,2,3,4-tetrahydroisoquinolin-6-yl}-N-methylbenzamide]
≤ 10 nM | CC(C)N1CC[C@@H](N2CCc3cc(-c4ccc(C(=O)N5CCCC5)cc4)ccc3C2=O)C1 [Example 56, 2-[(3R)-1-(1-methylethyl)pyrrolidin-3-yl]-6-[4-(pyrrolidin-1-ylcarbonyl)phenyl]-3,4-dihydroisoquinolin-1(2H)-one]
≤ 10 nM | CCNC(=O)c1ccc(-c2ccc3c(c2)CCN([C@@H]2CCN(C(C)C)C2)C3=O)cc1 [Example 83, N-ethyl-4-{2-[(3R)-1-isopropylpyrrolidin-3-yl]-1-oxo-1,2,3,4-tetrahydroisoquinolin-6-yl}benzamide]
≤ 10 nM | O=C(NC1CCCC1)c1ccc(-c2ccc3c(c2)CCN([C@@H]2CCN(C4CCC4)C2)C3=O)c(F)c1 [Example 80, 4-{2-[(3R)-1-cyclobutylpyrrolidin-3-yl]-1-oxo-1,2,3,4-tetrahydroisoquinolin-6-yl}-N-cyclopentyl-3-fluorobenzamide]
≤ 10 nM | CNC(=O)c1ccc(-c2ccc3c(c2)CCN([C@@H]2CCN(C4CCC4)C2)C3=O)cc1 [Example 44, 4-{2-[(3R)-1-cyclobutylpyrrolidin-3-yl]-1-oxo-1,2,3,4-tetrahydroisoquinolin-6-yl}-N-methylbenzamide]
10.1 to 25 nM | O=C(c1ccc(-c2ccc3c(c2)CCN([C@@H]2CCCN(C4CCC4)C2)C3=O)cc1)N1CCCC1 [Example 70, 2-[(3R)-1-cyclobutylpiperidin-3-yl]-6-[4-(pyrrolidin-1-ylcarbonyl)phenyl]-3,4-dihydroisoquinolin-1(2H)-one]
10.1 to 25 nM | O=C(NC1CCCC1)c1ccc2c(c1)CCN([C@@H]1CCN(C3CCC3)C1)C2=O [Example 88, 2-[(3R)-1-cyclobutylpyrrolidin-3-yl]-N-cyclopentyl-1-oxo-1,2,3,4-tetrahydroisoquinoline-6-carboxamide hydrochloride]
≤ 10 nM | CC(C)N1CCC(N2CCc3cc(-c4ccc(C(=O)N5CCCC5)cc4)ccc3C2=O)CC1 [Example 67, 2-(1-isopropylpiperidin-4-yl)-6-[4-(pyrrolidin-1-ylcarbonyl)phenyl]-3,4-dihydroisoquinolin-1(2H)-one]
10.1 to 25 nM | N#Cc1ccc(-c2ccc3c(c2)CN(C2CCN(C4CCCC4)CC2)C3=O)cc1 [Example 29, 4-[2-(1-Cyclopentylpiperidin-4-yl)-1-oxo-2,3-dihydro-1H-isoindol-5-yl]benzonitrile]
> 100 nM | O=C(c1ccc(-c2ccc3c(c2)CCN([C@@H]2CCN(Cc4ccco4)C2)C3=O)cc1)N1CCCC1 [Example 61, 2-[(3R)-1-(furan-2-ylmethyl)pyrrolidin-3-yl]-6-[4-(pyrrolidin-1-ylcarbonyl)phenyl]-3,4-dihydroisoquinolin-1(2H)-one]
> 100 nM | CC(C)N1CCC[C@@H](N2CCc3cc(-c4ccc(C(=O)N5CCCC5)cc4)ccc3C2=O)C1 [Example 72, 2-[(3R)-1-isopropylpiperidin-3-yl]-6-[4-(pyrrolidin-1-ylcarbonyl)phenyl]-3,4-dihydroisoquinolin-1(2H)-one]
> 100 nM | N#Cc1ccc(-c2ccc3c(c2)CN(C2CCNCC2)C3=O)cc1 [Example 22, 4-(1-oxo-2-piperidin-4-yl-2,3-dihydro-1H-isoindol-5-yl)benzonitrile hydrochloride]
≤ 10 nM | CNC(=O)c1ccc(-c2ccc3c(c2)CCN([C@@H]2CCN(C(C)C)C2)C3=O)cc1 [Example 82]
